Results: patent US20230382915A1, “GCN2 AND PERK KINASE INHIBITORS AND METHODS OF USE THEREOF” (Deciphera Pharmaceuticals, LLC, priority 2021, published 2023)

Tests used:
[1] = tested on: ATF4 levels in CCRF-CEM leukemia xenograft; assay: CCRF-CEM xenograft PK/PD model; type: in vivo, mice; settings: Mus musculus, po, in combination with ASNase, 2, 6, 10 h post dose, read-out: inhibition of ATF4 levels compared to vehicle control
Method: The CCRF-CEM xenograft model was performed in compliance with all the laws, regulations and guidelines of the National Institutes of Health (NIH) and with the approval of the Animal Care and Use Committee of Labcorp (Ann Arbor, MI), an AAALAC accredited facility. Food and water was provided ad libitum. […] Female Envigo C.B-17 SCID (6-7 weeks old) were inoculated subcutaneously just below the right high axilla with ten million cells in Dulbecco's Phosphate Buffered Saline, using a 27-gauge needle and syringe. When tumor burdens reached 200 mm 3 on average on day 22, mice were randomly assigned into groups such that the mean tumor burden for all groups was within 10% of the overall mean tumor burden for the study population. Groups were treated on days 23-24 as follows: on day 23 vehicle control (dosed orally and IP to mimic combination groups) (n=9); ASNase (Abcam, Cambridge, UK) dosed IP at 1000 U/kg/day (n=9). […] Protein concentrations were determined using BCA protein assay kit (Thermo Fisher Scientific, Waltham, MA). […] Samples were resolved using SDS-PAGE then analyzed using Western blot to quantify phospho-GCN2 (Thr899) (Abcam, Cambridge, UK), total GCN2, ATF4 and beta-Actin (Cell Signaling Technology, Danvers, MA). […] Data is analyzed using GraphPad Prism software (GraphPad, San Diego, CA) to calculate % inhibition.

[2] = tested on: HT-1080 cell line with GCN2 or PERK knockdown; assay: HT-1080 shRNA knockdown assay; type: cell-based
Method: Fibrosarcoma cell line HT-1080 (catalog […]) was obtained from the American Type Culture Collect (ATTC, Manassas, VA). Cells were grown in RPMI-1640 medium supplemented with 10% heat-inactivated fetal bovine serum and 1% Penicillin/Streptomycin/L-Glutamine (Invitrogen, Carlsbad, CA) at 37° C., 5% CO2, and 95% humidity and maintained at 50-80% confluency until use. shRNAs-expressing constructs targeting PERK, GCN2 or scrambled control were obtained from MISSION (Sigma, St. Louis, MO) and lentiviruses containing each construct were produced in-house. Cells were plated at 400,000 cells/well in 6-well tissue culture plates (ThermoFisher Scientific, Waltham, MA) with complete growth media and incubated overnight at 37° C., 5% CO2, and 95% humidity to attach. The next day, existing media was removed from each well and replenished with 1 mL/well fresh media containing 5 μg/mL polybrene (VectorBuilder, Chicago, IL). Cells were transduced with 200 μL/well corresponding lentivirus for 24 hours before being processed for western blot and cell proliferation assays.

[3] = tested on: H358 solid tumor spheroids; assay: Spheroid proliferation assay, H358; type: cell-based
Method: Non Small Cell Lung Cancer (NSCLC) cell lines H358 (catalog #CRL-5807) and H2030 (catalog #CRL-5914), and fibrosarcoma line HT-1080 (catalog […]) were obtained from the American Type Culture Collect (ATTC, Manassas, VA). Cells were grown in RPMI-1640 medium supplemented with 10% heat-inactivated fetal bovine serum and 1% Penicillin/Streptomycin/L-Glutamine (Invitrogen, Carlsbad, CA) at 37° C., 5% CO2, and 95% humidity and maintained at 50-80% confluency until use. 500-1000 cells were plated in 96-well ultra-low attachment plates (Corning, Glendale, AZ) with complete growth media at 80 μL/well and incubated overnight at 37° C., 5% CO2, and 95% humidity to form spheroids. The next day, serial dilutions of test compounds were prepared in complete growth media and 20 μL/well media containing compound titers was added to spheroids in triplicate. Spheroids were then incubated with test compounds for 5 days under the same conditions. At the end of the incubation, spheroids were lysed with 100 μL/well CellTiter-Glo 3D Viability Assay (Promega, Madison, WI) and luminescence was detected using Synergy2 or equivalent reader (Biotek, Winooski, VT). Data was analyzed using GraphPad Prism software (GraphPad, San Diego, CA) to calculate IC50 values.

## Cn1cc(-c2cccc(NS(=O)(=O)c3cc(Cl)cc(CO)c3Cl)c2F)c2c(N)ncnc21 [Example 2, N-(3-(4-amino-7-methyl-7H-pyrrolo[2,3-d]pyrimidin-5-yl)-2-fluorophenyl)-2,5-dichloro-3-(hydroxymethyl)benzenesulfonamide]
[1]; 25 mg/kg orally
  inhibition at 25 mg/kg: 57 to 93%
[1]; 50 mg/kg orally
  inhibition at 50 mg/kg: 87 to 91%
[2]; FIG. 13C
  compound-mediated spheroid growth inhibition upon knockdown: attenuated upon knockdown of GCN2 but not PERK
[2]; upon knockdown of GCN2, FIG. 13B
  reduction of compound-mediated upregulation of ATF4: 75%
[2]; upon knockdown of PERK, FIG. 13B
  reduction of compound-mediated upregulation of ATF4: 50%
[3]; Homo sapiens, NCI-H358, 120 h, 5 days, FIG. 11B, read-out: inhibition of cell proliferation IC50, single agent
  IC50: 10 nM
[3]; with 3.3 nM sotorasib, 96 h, FIG. 12B
  spheroid growth, combination treatment: greater spheroid regression compared to either single agent
